Source: patent publication US20260108513A1 (Pfizer Inc., priority 2022, published 2026)

System: mCRPC patients
Experiment: TALAPRO-2 Part 2: safety, adverse events and supportive care (safety population)
Assay type: in vivo, human
Details: talazoparib+enzalutamide group
Excerpt: This population was the primary population for evaluating safety.
Treatment-emergent is defined as the time between the first dose of study treatment to 28 days after the last dose of the last study treatment, or before any new antineoplastic therapy, whichever occurs first.

For `Cn1ncnc1[C@H]1c2n[nH]c(=O)c3cc(F)cc(c23)N[C@@H]1c1ccc(F)cc1` [talazoparib, (8S,9R)-5-fluoro-8-(4-fluorophenyl)-9-(1-methyl-1H-1,2,4-triazol-5-yl)-8,9-dihydro-2H-pyrido[4,3,2-de]phthalazin-3(7H)-one], the “median time to onset of first G≥3 anemia” value was 3.3 months and the “recurrent G3-4 anemia” value was 20.6%.
